Among the data in ChEMBL document CHEMBL4627379, “Production of Antitubercular Depsipeptides via Biosynthetic Engineering of Cinnamoyl Units” (2020) are MIC values, retold here.

In the experiment the test system is Mycobacterium tuberculosis. Nature of the experiment: Antitubercular activity against autoluminescent Mycobacterium tuberculosis H37Rv assessed as reduction in microbial growth by two-fold serial dilution method. It counts as functional.
By MIC is commonly meant the lowest concentration that inhibits growth of the organism. In the case of `Cc1ccccc1/C=C/C(=O)N[C@@H]1C(=O)N[C@@H](CO)C(=O)N[C@@H](Cc2c[nH]c3ccccc23)C(=O)N[C@H](CC(N)=O)C(=O)N[C@@H]([C@@H](O)c2ccccc2)C(=O)N2CCC[C@H]2C(=O)N[C@H](C(C)C)C(=O)NCC(=O)N[C@H](CC(C)C)C(=O)N[C@H](Cc2ccc(O)cc2)C(=O)O[C@@H]1C`, the MIC stood at 14.8 µM.
Next, `CO[C@H]1/C=C/O[C@@]2(C)Oc3c(C)c(O)c4c(O)c(c(/C=N/N5CCN(C)CC5)c(O)c4c3C2=O)NC(=O)/C(C)=C\C=C\[C@H](C)[C@H](O)[C@@H](C)[C@@H](O)[C@@H](C)[C@H](OC(C)=O)[C@@H]1C` [RIFAMPIN]: 0.06 µM; `C/C=C/[C@H](O)[C@H](O)c1ccccc1/C=C/C(=O)N[C@@H]1C(=O)N[C@@H](CO)C(=O)N[C@H](CC(C)C)C(=O)N[C@@H]([C@H](O)c2ccccc2)C(=O)N[C@@H](CO)C(=O)N[C@H]([C@@H](C)O)C(=O)N[C@H](CO)C(=O)N[C@H](c2ccc(O)cc2)C(=O)N[C@@H](C(C)C)C(=O)N[C@H](CC(C)C)C(=O)O[C@H]1C`: 1.9 µM.
The same measure for `C/C=C/C=C/c1ccccc1/C=C/C(=O)N[C@@H]1C(=O)N[C@@H](CO)C(=O)N[C@@H](Cc2c[nH]c3ccccc23)C(=O)N[C@H](CC(N)=O)C(=O)N[C@@H]([C@@H](O)c2ccccc2)C(=O)N2CCC[C@H]2C(=O)N[C@H](C(C)C)C(=O)NCC(=O)N[C@H](CC(C)C)C(=O)N[C@H](Cc2ccc(O)cc2)C(=O)O[C@@H]1C`: 2.3 µM.
